{"source": "ChEMBL document CHEMBL4613261", "about": "“Metabolic and Pharmaceutical Aspects of Fluorinated Compounds” (J Med Chem, 2020)", "key": {"[1]": {"assay": "Drug metabolism in Sprague-Dawley rat kidney assessed as fluoro-acetic acid metabolite level at 100 mg/kg, po measured after 2 to 8 hrs", "type": "ADME, organism-based", "conditions": "in vivo"}, "[2]": {"assay": "Drug metabolism in Sprague-Dawley rat liver assessed as fluoro-acetic acid metabolite level at 100 mg/kg, po measured after 2 to 8 hrs", "type": "ADME, organism-based", "conditions": "in vivo"}, "[3]": {"assay": "Drug metabolism in Sprague-Dawley rat heart assessed as fluoro-acetic acid metabolite level at 100 mg/kg, po measured after 2 to 8 hrs", "type": "ADME, organism-based", "conditions": "in vivo"}, "[4]": {"assay": "Prodrug conversion in rat blood assessed as rate of didanosine formation by HPLC analysis", "type": "ADME, tissue-based"}, "Adenosine deaminase [5]": {"biological_target": "T1, Adenosine deaminase (Rattus norvegicus, UniProt Q920P6)", "T1 sequence (Q920P6 whole entry)": "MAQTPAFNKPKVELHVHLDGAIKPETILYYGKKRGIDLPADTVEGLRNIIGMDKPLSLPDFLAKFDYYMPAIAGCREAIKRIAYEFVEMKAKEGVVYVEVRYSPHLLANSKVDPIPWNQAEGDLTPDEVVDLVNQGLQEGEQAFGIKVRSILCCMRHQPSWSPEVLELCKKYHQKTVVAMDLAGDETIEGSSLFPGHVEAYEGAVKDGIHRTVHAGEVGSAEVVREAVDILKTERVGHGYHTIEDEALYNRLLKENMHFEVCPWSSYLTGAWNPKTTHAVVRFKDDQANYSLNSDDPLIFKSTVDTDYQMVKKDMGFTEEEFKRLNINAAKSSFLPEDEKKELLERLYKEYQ", "assay": "Prodrug conversion in rat blood assessed as rate of adenosine deaminase-mediated didanosine formation by HPLC analysis", "type": "ADME, tissue-based"}, "[6]": {"assay": "Prodrug conversion in rat blood assessed as total fraction of didanosine formation by HPLC analysis", "type": "ADME, tissue-based"}, "[7]": {"assay": "Apparent half life in rat blood", "type": "ADME, tissue-based"}, "Adenosine deaminase [8]": {"biological_target": "T1, Adenosine deaminase", "assay": "Prodrug conversion in rat brain assessed as rate of adenosine deaminase-mediated didanosine formation by HPLC analysis", "type": "ADME, tissue-based", "conditions": "in vivo"}, "[9]": {"assay": "Apparent half life in rat brain", "type": "ADME, tissue-based"}, "[10]": {"assay": "Prodrug conversion in rat brain assessed as total fraction of didanosine formation by HPLC analysis", "type": "ADME, tissue-based", "conditions": "in vivo"}, "[11]": {"assay": "Prodrug conversion in rat brain assessed as rate of didanosine formation by HPLC analysis", "type": "ADME, tissue-based", "conditions": "in vivo"}, "[12]": {"assay": "Solubility of the compound in aqueous buffer at pH 6.5", "type": "physicochemical"}, "[13]": {"assay": "Clearance in human liver microsomes assessed per mg protein", "type": "ADME, Microsome"}, "[14]": {"biological_target": "Alanine racemase, biosynthetic (Escherichia coli K-12, UniProt P0A6B4)", "sequence (P0A6B4 whole entry)": "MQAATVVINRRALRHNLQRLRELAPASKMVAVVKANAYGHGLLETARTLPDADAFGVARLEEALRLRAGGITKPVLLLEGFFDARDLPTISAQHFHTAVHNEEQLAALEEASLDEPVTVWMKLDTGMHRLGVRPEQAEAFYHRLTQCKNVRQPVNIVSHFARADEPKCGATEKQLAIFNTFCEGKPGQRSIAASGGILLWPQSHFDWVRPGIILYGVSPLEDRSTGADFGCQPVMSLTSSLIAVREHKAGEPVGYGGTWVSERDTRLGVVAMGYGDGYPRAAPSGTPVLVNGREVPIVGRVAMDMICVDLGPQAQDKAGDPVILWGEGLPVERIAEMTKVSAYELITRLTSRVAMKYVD", "assay": "Substrate activity at Escherichia coli B alanine racemase assessed as partition ratio by measuring ratio of turnover rate to inactivation rate"}, "[15]": {"biological_target": "T2, MGST1 (microsomal glutathione S-transferase 1) (Rattus norvegicus, UniProt P08011)", "T2 sequence (P08011 whole entry)": "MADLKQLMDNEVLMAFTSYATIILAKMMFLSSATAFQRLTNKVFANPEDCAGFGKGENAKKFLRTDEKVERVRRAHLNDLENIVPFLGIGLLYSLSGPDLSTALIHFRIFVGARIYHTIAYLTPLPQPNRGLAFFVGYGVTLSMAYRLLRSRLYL", "assay": "Substrate activity at MGST1 in rat liver microsomes assessed as substrate depletion at 50 uM incubated for 30 mins in presence of GSH by liquid chromatography/mass spectrometry", "type": "ADME", "conditions": "read-out: Activity"}, "Lysine decarboxylase": {"biological_target": "T3, Lysine decarboxylase (Hafnia alvei, UniProt P05033)", "T3 sequence (P05033 whole entry)": "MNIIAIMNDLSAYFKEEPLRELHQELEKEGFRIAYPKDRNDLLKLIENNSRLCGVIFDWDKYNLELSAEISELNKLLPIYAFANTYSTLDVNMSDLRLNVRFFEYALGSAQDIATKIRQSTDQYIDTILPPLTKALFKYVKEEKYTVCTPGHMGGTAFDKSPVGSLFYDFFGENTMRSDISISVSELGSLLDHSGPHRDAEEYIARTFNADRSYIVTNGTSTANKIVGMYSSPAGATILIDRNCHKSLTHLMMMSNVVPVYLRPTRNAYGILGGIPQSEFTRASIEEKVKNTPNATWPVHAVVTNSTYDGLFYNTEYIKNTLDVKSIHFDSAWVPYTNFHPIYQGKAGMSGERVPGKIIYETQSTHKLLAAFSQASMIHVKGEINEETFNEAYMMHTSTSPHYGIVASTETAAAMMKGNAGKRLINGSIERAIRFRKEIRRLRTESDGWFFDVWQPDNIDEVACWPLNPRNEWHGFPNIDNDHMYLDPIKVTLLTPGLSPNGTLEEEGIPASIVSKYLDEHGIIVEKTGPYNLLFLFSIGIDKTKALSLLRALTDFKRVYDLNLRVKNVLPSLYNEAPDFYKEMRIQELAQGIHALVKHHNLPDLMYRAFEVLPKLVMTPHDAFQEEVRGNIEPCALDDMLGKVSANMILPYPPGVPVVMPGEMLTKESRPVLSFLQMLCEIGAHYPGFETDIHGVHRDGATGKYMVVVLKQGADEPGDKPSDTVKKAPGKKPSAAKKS", "assay": "Time dependent inhibition of Hafnia alvei lysine decarboxylase using L-lysine by Kitz-Wilson analysis"}, "[16]": {"assay": "Intrinsic clearance in human liver microsome", "type": "ADME", "conditions": "liver microsomes, read-out: CLH"}, "[17]": {"assay": "Lipophilicity, log P of the compound", "conditions": "octanol/water"}, "[18]": {"assay": "Protein binding in human plasma"}, "[19]": {"assay": "Aqueous solubility of the compound in pH 6.8 buffer", "conditions": "pH 6.8 buffer"}, "[20]": {"biological_target": "T4, Microsomal glutathione S-transferase 1 (Rattus norvegicus, UniProt P08011)", "T4 sequence (P08011 whole entry)": "T2 sequence (P08011 whole entry)", "assay": "Substrate activity at MGST1 in rat liver microsomes assessed as reactivity rate at 50 uM incubated for 1 to 40 mins in presence of GSH by liquid chromatography/mass spectrometry"}, "[21]": {"assay": "Acute toxicity in rat measured after 4 hrs", "conditions": "in vivo"}, "[22]": {"assay": "Lipophilicity, log P of the compound by C18 reverse phase HPLC", "type": "physicochemical"}}}
{"smiles": "C[C@H](NC(=O)[C@H](Cc1ccccc1)NC(=O)OCc1ccccc1)C(=O)CF", "values": [{"measurement": "Drug metabolism", "setting": "[1]", "result": "0.2 to 0.9", "unit": "µg/g"}, {"measurement": "Drug metabolism", "setting": "[2]", "result": "0.2 to 0.9", "unit": "µg/g"}, {"measurement": "Drug metabolism", "setting": "[3]", "result": "0.2 to 0.9", "unit": "µg/g"}]}
{"smiles": "OC[C@@H]1CC[C@H](n2cnc3c(F)ncnc32)O1", "values": [{"measurement": "K", "setting": "[4]", "result": 0.13, "unit": "min⁻¹"}, {"measurement": "K", "setting": "Adenosine deaminase [5]", "result": 0.15, "unit": "min⁻¹"}, {"measurement": "Fm", "setting": "[6]", "result": 0.54}, {"measurement": "half-life", "setting": "[7]", "result": 0.0583, "unit": "h"}, {"measurement": "K", "setting": "Adenosine deaminase [8]", "result": 1.51, "unit": "min⁻¹"}, {"measurement": "half-life", "setting": "[9]", "result": 0.00767, "unit": "h"}, {"measurement": "Fm", "setting": "[10]", "result": 1}, {"measurement": "K", "setting": "[11]", "result": 0, "unit": "min⁻¹"}]}
{"smiles": "OC[C@@H]1CC[C@H](n2cnc3c(Cl)ncnc32)O1", "values": [{"measurement": "K", "setting": "[4]", "result": 7.4, "unit": "×10⁻³ /min"}, {"measurement": "K", "setting": "Adenosine deaminase [5]", "result": 3, "unit": "×10⁻³ /min"}, {"measurement": "Fm", "setting": "[6]", "result": 0.28}, {"measurement": "half-life", "setting": "[7]", "result": 4.5, "unit": "h"}, {"measurement": "K", "setting": "Adenosine deaminase [8]", "result": 0.032, "unit": "min⁻¹"}, {"measurement": "half-life", "setting": "[9]", "result": 0.317, "unit": "h"}, {"measurement": "Fm", "setting": "[10]", "result": 1}, {"measurement": "K", "setting": "[11]", "result": 0, "unit": "min⁻¹"}]}
{"smiles": "FCC(F)Cc1c[nH]c2ccccc12", "note": "(centres undefined)", "values": [{"measurement": "solubility", "setting": "[12]", "result": "> 1720", "unit": "µM"}, {"measurement": "CLH", "setting": "[13]", "result": 212, "unit": "min⁻¹ µL⁻¹"}]}
{"smiles": "N[C@@H](CF)C(=O)O", "values": [{"measurement": "Ratio", "setting": "[14]", "result": 790}]}
{"smiles": "Clc1cccnc1Cl", "values": [{"measurement": "metabolised at 0.5 h, 50 µM", "setting": "[15]", "result": 26, "unit": "%"}]}
{"smiles": "N[C@H](C(=O)O)C(F)F", "values": [{"measurement": "Ratio", "setting": "[14]", "result": 5000}]}
{"smiles": "Oc1cccnc1Cl", "values": [{"measurement": "metabolised at 0.5 h, 50 µM", "setting": "[15]", "result": "< 5", "unit": "%"}]}
{"smiles": "OC[C@@H]1CC[C@H](n2cnc3c(Br)ncnc32)O1", "values": [{"measurement": "half-life", "setting": "[7]", "result": 4.67, "unit": "h"}, {"measurement": "half-life", "setting": "[9]", "result": 0.333, "unit": "h"}]}
{"smiles": "Nc1cccnc1Cl", "values": [{"measurement": "metabolised at 0.5 h, 50 µM", "setting": "[15]", "result": "< 5", "unit": "%"}]}
{"smiles": "N[C@@H](C(=O)O)C(F)F", "values": [{"measurement": "Ratio", "setting": "[14]", "result": 2600}]}
{"smiles": "C=C(F)[C@](N)(CCCCN)C(=O)O", "values": [{"measurement": "Ki", "setting": "Lysine decarboxylase", "result": 630, "unit": "µM"}]}
{"smiles": "O=[N+]([O-])c1cn2c(n1)OC[C@@H](OCc1ccc(SC(F)(F)F)cc1)C2", "values": [{"measurement": "microsomal CLint", "setting": "[16]", "result": "< 25", "unit": "µL/min/mg"}, {"measurement": "logP", "setting": "[17]", "result": 2.7}, {"measurement": "fraction unbound", "setting": "[18]", "result": 0.4}, {"measurement": "solubility", "setting": "[19]", "result": 5, "unit": "µM"}]}
{"smiles": "O=[N+]([O-])c1cccnc1Cl", "values": [{"measurement": "metabolised at 0.5 h, 50 µM", "setting": "[15]", "result": 100, "unit": "%"}, {"measurement": "Activity", "setting": "[20]", "result": 236, "unit": "nmol/min/mg"}]}
{"smiles": "OC[C@@H]1CC[C@H](n2cnc3c(I)ncnc32)O1", "values": [{"measurement": "half-life", "setting": "[7]", "result": 28.2, "unit": "h"}, {"measurement": "half-life", "setting": "[9]", "result": 2.97, "unit": "h"}]}
{"smiles": "FC(F)=C(F)C(F)(F)F", "values": [{"measurement": "Activity", "setting": "[21]", "result": 3000, "unit": "ppm"}]}
{"smiles": "COc1cccnc1Cl", "values": [{"measurement": "metabolised at 0.5 h, 50 µM", "setting": "[15]", "result": 17, "unit": "%"}]}
{"smiles": "C=C(F)[C@@](N)(CCCCN)C(=O)O", "values": [{"measurement": "Ki", "setting": "Lysine decarboxylase", "result": 470, "unit": "µM"}]}
{"smiles": "FC(F)(F)Oc1ccccc1", "values": [{"measurement": "logP", "setting": "[22]", "result": 3.35}]}
{"smiles": "FC(F)(F)c1cccnc1Cl", "values": [{"measurement": "metabolised at 0.5 h, 50 µM", "setting": "[15]", "result": 31, "unit": "%"}]}
{"smiles": "CC(F)(F)Oc1ccccc1", "values": [{"measurement": "logP", "setting": "[22]", "result": 2.87}]}
